What follows are compounds tested against T1, human vasopressin V2 receptor subtype (Homo sapiens, UniProt P30518) (assay: Vasopressin binding in Chinese Hamster Ovary cell membranes expressing human vasopressin V2 subtype receptors). Conditions: 100 nM, CHO cell membranes, [3H]arginine vasopressin, values without parentheses.
T1 construct: host or cells: CHO cells (pZeoSV vector)
Procedure, shortened: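 Radioligand displacement on membranes from CHO cells stably expressing human V2 receptor, 25 to 50 μg protein/well, in 50 mM Tris-HCl pH 7.4 with MgCl2, BSA and protease inhibitors. [^3H]arginine vasopressin (8 nM working solution) incubated 60 min at room temperature; bound label measured by filtration and scintillation counting.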

T1 sequence (P30518 whole entry): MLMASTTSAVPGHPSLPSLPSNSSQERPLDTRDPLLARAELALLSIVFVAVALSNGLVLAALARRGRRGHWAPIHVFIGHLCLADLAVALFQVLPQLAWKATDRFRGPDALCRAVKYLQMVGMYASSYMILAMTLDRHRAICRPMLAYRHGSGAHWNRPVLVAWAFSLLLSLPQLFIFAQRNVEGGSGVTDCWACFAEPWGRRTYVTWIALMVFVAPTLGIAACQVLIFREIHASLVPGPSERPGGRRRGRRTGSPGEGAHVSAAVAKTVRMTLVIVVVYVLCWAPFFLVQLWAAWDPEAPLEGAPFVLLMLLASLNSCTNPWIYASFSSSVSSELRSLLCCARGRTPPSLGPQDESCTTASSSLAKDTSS

| SMILES | inhibition at 0.1 µM [%] |
| --- | --- |
| COc1cccc(-c2cc(OC)c(C(=O)N3Cc4ccc(C(=O)NCCCN(C)C)n4Cc4ccccc43)cc2Cl)c1 [Example 79, 10-[(6-Chloro-3,3′-dimethoxy[1,1′-biphenyl]-4-yl)carbonyl]-N-[3-(dimethylamino)propyl]-10,11-dihydro-5H-pyrrolo[2,1-c][1,4]benzodiazepine-3-carboxamide] | 7 |
| COc1cc(C(=O)N2Cc3ccc(C(=O)NCCCN(C)C)n3Cc3ccccc32)ccc1-c1cccc2ccccc12 [Example 80, N-[3-(Dimethylamino)propyl]-10-[3-methoxy-4-(1-naphthyl)benzoyl]-10,11-dihydro-5H-pyrrolo[2,1-c][1,4]benzodiazepine-3-carboxamide] | 43 |
| COc1ccccc1-c1ccc(C(=O)N2Cc3ccc(C(=O)NCCCN(C)C)n3Cc3ccccc32)cc1OC [Example 81, 10-[(2,2′-Dimethoxy[1,1′-biphenyl]-4-yl)carbonyl]-N-[3-(dimethylamino)propyl]-10,11-dihydro-5H-pyrrolo[2,1-c][1,4]benzodiazepine-3-carboxamide] | 21 |
| COc1cccc(-c2ccc(C(=O)N3Cc4ccc(C(=O)NCCCN(C)C)n4Cc4ccccc43)cc2OC)c1 [Example 82, 10-[(2,3′-Dimethoxy[1,1′-biphenyl]-4-yl)carbonyl]-N-[3-(dimethylamino)propyl]-10,11-dihydro-5H-pyrrolo[2,1-c][1,4]benzodiazepine-3-carboxamide] | 10 |
| CN(C)CCCNC(=O)c1ccc2n1Cc1ccccc1N(C(=O)c1ccc(-c3cccc4ccccc34)cc1Cl)C2 [Example 83, 10-[2-Chloro-4-(1-naphthyl)benzoyl]-N-[3-(dimethylamino)propyl]-10,11-dihydro-5H-pyrrolo[2,1-c][1,4]benzodiazepine-3-carboxamide] | 18 |
| COc1ccccc1-c1ccc(C(=O)N2Cc3ccc(C(=O)N(C)CCN(C)C)n3Cc3ccccc32)cc1C [Example 88, N-[2-(Dimethylamino)ethyl]-10-[(2′-methoxy-2-methyl[1,1′-biphenyl]-4-yl)carbonyl]-N-methyl-10,11-dihydro-5H-pyrrolo[2,1-c][1,4]benzodiazepine-3-carboxamide] | 30 |
| COc1cccc(-c2ccc(C(=O)N3Cc4ccc(C(=O)N(C)CCN(C)C)n4Cc4ccccc43)cc2C)c1 [Example 89, N-[2-(Dimethylamino)ethyl]-10-[(3′-methoxy-2-methyl[1,1′-biphenyl]-4-yl)carbonyl]-N-methyl-10,11-dihydro-5H-pyrrolo[2,1-c][1,4]benzodiazepine-3-carboxamide] | 13 |
| COc1ccccc1-c1ccc(C(=O)N2Cc3ccc(C(=O)N(C)CCN(C)C)n3Cc3ccccc32)cc1 [Example 90, N-[2-(Dimethylamino)ethyl]-10-[(2′-methoxy[1,1′-biphenyl]-4-yl)carbonyl]-N-methyl-10,11-dihydro-5H-pyrrolo[2,1-c][1,4]benzodiazepine-3-carboxamide] | 19 |
| Cc1ccccc1-c1ccc(C(=O)N2Cc3ccc(C(=O)N(C)CCN(C)C)n3Cc3ccccc32)cc1 [Example 91, N-[2-(Dimethylamino)ethyl]-N-methyl-10-[(2′-methyl[1,1′-biphenyl]-4-yl)carbonyl]-10,11-dihydro-5H-pyrrolo[2,1-c][1,4]benzodiazepine-3-carboxamide] | 17 |
| COc1cc(C(=O)N2Cc3ccc(C(=O)N(C)CCN(C)C)n3Cc3ccccc32)ccc1-c1ccccc1C [Example 92, N-[2-(Dimethylamino)ethyl]-10-[(2-methoxy-2′-methyl[1,1′-biphenyl]-4-yl)carbonyl]-N-methyl-10,11-dihydro-5H-pyrrolo[2,1-c][1,4]benzodiazepine-3-carboxamide] | 20 |
| COc1cc(C(=O)N2Cc3ccc(C(=O)N(C)CCN(C)C)n3Cc3ccccc32)ccc1-c1cccc2ccccc12 [Example 93, N-[2-(Dimethylamino)ethyl]-10-[3-methoxy-4-(1-naphthyl)benzoyl]-N-methyl-10,11-dihydro-5H-pyrrolo[2,1-c][1,4]benzodiazepine-3-carboxamide] | 36 |
| COc1ccccc1-c1ccc(C(=O)N2Cc3ccc(C(=O)N(C)CCN(C)C)n3Cc3ccccc32)cc1OC [Example 94, 10-[(2,2′-Dimethoxy[1,1′-biphenyl]-4-yl)carbonyl]-N-[2-(dimethylamino)ethyl]-N-methyl-10,11-dihydro-5H-pyrrolo[2,1-c][1,4]benzodiazepine-3-carboxamide] | 26 |
| COc1cccc(-c2ccc(C(=O)N3Cc4ccc(C(=O)N(C)CCN(C)C)n4Cc4ccccc43)cc2OC)c1 [Example 95, 10-[(2,3′-Dimethoxy[1,1′-biphenyl]-4-yl)carbonyl]-N-[2-(dimethylamino)ethyl]-N-methyl-10,11-dihydro-5H-pyrrolo[2,1-c][1,4]benzodiazepine-3-carboxamide] | 13 |
| CN(C)CCN(C)C(=O)c1ccc2n1Cc1ccccc1N(C(=O)c1ccc(-c3cccc4ccccc34)cc1Cl)C2 [Example 96, 10-[2-Chloro-4-(1-naphthyl)benzoyl]-N-[2-(dimethylamino)ethyl]-N-methyl-10,11-dihydro-5H-pyrrolo[2,1-c][1,4]benzodiazepine-3-carboxamide] | 24 |
| COc1ccccc1-c1ccc(C(=O)N2Cc3ccc(C(=O)N(C)CCCN(C)C)n3Cc3ccccc32)cc1C [Example 100, N-[3-(Dimethylamino)propyl]-10-[(2′-methoxy-2-methyl[1,1′-biphenyl]-4-yl)carbonyl]-N-methyl-10,11-dihydro-5H-pyrrolo[2,1-c][1,4]benzodiazepine-3-carboxamide] | 26 |
| Cc1ccccc1-c1ccc(C(=O)N2Cc3ccc(C(=O)N(C)CCCN(C)C)n3Cc3ccccc32)cc1C [Example 101, N-[3-(Dimethylamino)propyl]-10-[(2,2′-dimethyl[1,1′-biphenyl]-4-yl)carbonyl]-N-methyl-10,11-dihydro-5H-pyrrolo[2,1-c][1,4]benzodiazepine-3-carboxamide] | 7 |
| COc1cccc(-c2ccc(C(=O)N3Cc4ccc(C(=O)N(C)CCCN(C)C)n4Cc4ccccc43)cc2C)c1 [Example 102, N-[3-(Dimethylamino)propyl]-10-[(3′-methoxy-2-methyl[1,1′-biphenyl]-4-yl)carbonyl]-N-methyl-10,11-dihydro-5H-pyrrolo[2,1-c][1,4]benzodiazepine-3-carboxamide] | 18 |
| COc1ccccc1-c1ccc(C(=O)N2Cc3ccc(C(=O)N(C)CCCN(C)C)n3Cc3ccccc32)cc1 [Example 103, N-[3-(Dimethylamino)propyl]-10-[(2′-methoxy[1,1′-biphenyl]-4-yl)carbonyl]-N-methyl-10,11-dihydro-5H-pyrrolo[2,1-c][1,4]benzodiazepine-3-carboxamide] | 11 |
| Cc1ccccc1-c1ccc(C(=O)N2Cc3ccc(C(=O)N(C)CCCN(C)C)n3Cc3ccccc32)cc1 [Example 104, N-[3-(Dimethylamino)propyl]-N-methyl-10-[(2′-methyl[1,1′-biphenyl]-4-yl)carbonyl]-10,11-dihydro-5H-pyrrolo[2,1-c][1,4]benzodiazepine-3-carboxamide] | 20 |
| COc1cc(C(=O)N2Cc3ccc(C(=O)N(C)CCCN(C)C)n3Cc3ccccc32)ccc1-c1ccccc1C [Example 105, N-[3-(Dimethylamino)propyl]-10-[(2-methoxy-2′-methyl[1,1′-biphenyl]-4-yl)carbonyl]-N-methyl-10,11-dihydro-5H-pyrrolo[2,1-c][1,4]benzodiazepine-3-carboxamide] | 18 |

Same assay, conditions: CHO cell membranes, [3H]arginine vasopressin, values in parentheses

| SMILES | IC50 [nM] |
| --- | --- |
| Cc1cc(C(=O)N2Cc3ccc(C(=O)N(C)CCN(C)C)n3Cc3ccccc32)ccc1-c1ccccc1C(F)(F)F [Example 85, N-[2-(Dimethylamino)ethyl]-N-methyl-10-{[2-methyl-2′-(trifluoromethyl)[1,1′-biphenyl]-4-yl]carbonyl}-10,11-dihydro-5H-pyrrolo[2,1-c][1,4]benzodiazepine-3-carboxamide] | 3130 |
| COc1cc(-c2ccccc2C)c(Cl)cc1C(=O)N1Cc2ccc(C(=O)N(C)CCN(C)C)n2Cc2ccccc21 [Example 86, 10-[(6-Chloro-3-methoxy-2′-methyl[1,1′-biphenyl]-4-yl)carbonyl]-N-[2-(dimethylamino)ethyl]-N-methyl-10,11-dihydro-5H-pyrrolo[2,1-c][1,4]benzodiazepine-3-carboxamide] | 1700 |
| COc1cccc(-c2cc(OC)c(C(=O)N3Cc4ccc(C(=O)N(C)CCN(C)C)n4Cc4ccccc43)cc2Cl)c1 [Example 87, 10-[(6-Chloro-3,3′-dimethoxy[1,1′-biphenyl]-4-yl)carbonyl]-N-[2-(dimethylamino)ethyl]-N-methyl-10,11-dihydro-5H-pyrrolo[2,1-c][1,4]benzodiazepine-3-carboxamide] | 2180 |
| Cc1cc(C(=O)N2Cc3ccc(C(=O)N(C)CCCN(C)C)n3Cc3ccccc32)ccc1-c1ccccc1C(F)(F)F [Example 97, N-[3-(Dimethylamino)propyl]-N-methyl-10-{[2-methyl-2′-(trifluoromethyl)[1,1′-biphenyl]-4-yl]carbonyl}-10,11-dihydro-5H-pyrrolo[2,1-c][1,4]benzodiazepine-3-carboxamide] | 2000 |
| COc1cc(-c2ccccc2C)c(Cl)cc1C(=O)N1Cc2ccc(C(=O)N(C)CCCN(C)C)n2Cc2ccccc21 [Example 98, 10-[(6-Chloro-3-methoxy-2′-methyl[1,1′-biphenyl]-4-yl)carbonyl]-N-[3-(dimethylamino)propyl]-N-methyl-10,11-dihydro-5H-pyrrolo[2,1-c][1,4]benzodiazepine-3-carboxamide] | 1030 |
| COc1cccc(-c2cc(OC)c(C(=O)N3Cc4ccc(C(=O)N(C)CCCN(C)C)n4Cc4ccccc43)cc2Cl)c1 [Example 99, 10-[(6-Chloro-3,3′-dimethoxy[1,1′-biphenyl]-4-yl)carbonyl]-N-[3-(dimethylamino)propyl]-N-methyl-10,11-dihydro-5H-pyrrolo[2,1-c][1,4]benzodiazepine-3-carboxamide] | 1330 |

Reference: patent publication US7109193B2, “Tricyclic diazepines tocolytic oxytocin receptor antagonists” (Wyeth, priority 2001, dated 2006)
